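Each compound was tested at five concentrations against cells in 96-well plates for 48 hours. GI50: concentration for 50% inhibition of growth.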 Activity calls are given as the source filed them. Rule as the data show it: active = GI50 up to about 1.1 µM and inactive = higher.
Columns and labels:
Experiment in all cases: DTP human tumour cell line panel, 48 h
OVCAR-4 = system: OVCAR-4
UO-31 = system: UO-31
UACC-257 = system: UACC-257
KM12 = system: KM12
NCI-H522 = system: NCI-H522
M14 = system: M14
OVCAR-3 = system: OVCAR-3
HCT-15 = system: HCT-15
NCI/ADR-RES = system: NCI/ADR-RES
SF-539 = system: SF-539
ACHN = system: ACHN
LOX IMVI = system: LOX IMVI
HL-60 = system: HL-60
OVCAR-5 = system: OVCAR-5
U-251 = system: U-251
DU-145 = system: DU-145
SK-MEL-5 = system: SK-MEL-5

Row | SMILES | GI50 (OVCAR-4) | GI50 (UO-31) | GI50 (UACC-257) | GI50 (KM12) | GI50 (NCI-H522) | GI50 (M14) | GI50 (OVCAR-3) | GI50 (HCT-15) [µM] | GI50 (NCI/ADR-RES) | GI50 (SF-539) | GI50 (ACHN) | GI50 (LOX IMVI) | GI50 (HL-60) | GI50 (OVCAR-5) | GI50 (U-251) | GI50 (DU-145) | GI50 (SK-MEL-5)
1 | CCCCNC(=O)c1cc(S(=O)(=O)n2ccnc2O)c(SC)cc1Cl | > 100 µM (inactive) | > 100 µM (inactive) | > 100 µM (inactive) | > 100 µM (inactive) | > 100 µM (inactive) | > 100 µM (inactive) | > 100 µM (inactive) | > 100 | > 100 µM (inactive) | > 100 µM (inactive) | > 100 µM (inactive) | > 100 µM (inactive) | > 100 µM (inactive) | > 100 µM (inactive) | > 100 µM (inactive) | > 100 µM (inactive) | > 100 µM (inactive)
2 | CCOc1ccc(NC(=S)N/C=C(/C(C)=O)C(=O)Nc2ccccc2C)cc1 | 59.8 µM (inactive) | > 100 µM (inactive) | > 100 µM (inactive) | > 100 µM (inactive) | > 100 µM (inactive) | > 100 µM (inactive) | > 100 µM (inactive) | > 100 | > 100 µM (inactive) | > 100 µM (inactive) | > 100 µM (inactive) | > 100 µM (inactive) | > 100 µM (inactive) | > 100 µM (inactive) | > 100 µM (inactive) | > 100 µM (inactive) | > 100 µM (inactive)
3 | Cc1n[nH]c(=O)n1/N=C/c1cccnc1 | > 100 µM (inactive) | > 100 µM (inactive) | > 100 µM (inactive) | > 100 µM (inactive) | > 100 µM (inactive) | > 100 µM (inactive) | > 100 µM (inactive) | > 100 | > 100 µM (inactive) | > 100 µM (inactive) | > 100 µM (inactive) | > 100 µM (inactive) | > 100 µM (inactive) | > 100 µM (inactive) | > 100 µM (inactive) | > 100 µM (inactive) | > 100 µM (inactive)
4 | Cc1ccc(-c2nc3cc(F)c(N4CCN(C)CC4)cc3[nH]2)cc1 | 17.1 µM (inactive) | 13.9 µM (inactive) | 17.2 µM (inactive) | 14 µM (inactive) | 14.5 µM (inactive) | 16.7 µM (inactive) |  | 6.32 | 28.8 µM (inactive) |  | 21.1 µM (inactive) | 27.9 µM (inactive) | 21.4 µM (inactive) | 21.9 µM (inactive) | 29.5 µM (inactive) | 31.1 µM (inactive) | 11.4 µM (inactive)
5 | COC(=O)CC1(O)C(C=C(C)C)C(C(=O)OC)C(=O)C(C(=O)OC)C1C(=O)OC (configuration not stated) | > 100 µM (inactive) | > 100 µM (inactive) | > 100 µM (inactive) | > 100 µM (inactive) | > 100 µM (inactive) | > 100 µM (inactive) | > 100 µM (inactive) | > 100 | 38.5 µM (inactive) | > 100 µM (inactive) | > 100 µM (inactive) | > 100 µM (inactive) | > 100 µM (inactive) | > 100 µM (inactive) | > 100 µM (inactive) | > 100 µM (inactive) | > 100 µM (inactive)
6 | C#CC1(O)CCCCCCCCC2(CCCCCCCC1)OCCO2 | 4.81 µM (inactive) | < 0.01 µM (active) | 23.4 µM (inactive) | 18.6 µM (inactive) | 2.56 µM (inactive) | 19.6 µM (inactive) | 15.4 µM (inactive) | 18 | 18.1 µM (inactive) | 18 µM (inactive) | 13.8 µM (inactive) | 22.1 µM (inactive) | 13.5 µM (inactive) | 22 µM (inactive) | 17.1 µM (inactive) | 17.3 µM (inactive) | 19.2 µM (inactive)
7 | CC1=NN(c2cccc(Cl)c2)C2(SCC(=O)N2c2nc3ccccc3s2)C1=CC=Cc1ccccc1 (configuration not stated) | 37.8 µM (inactive) | 23.6 µM (inactive) | 36.9 µM (inactive) | 31.2 µM (inactive) | 26.7 µM (inactive) | 32.1 µM (inactive) | 39.6 µM (inactive) | 29.2 | 34.8 µM (inactive) | 44.1 µM (inactive) | 22.3 µM (inactive) | 35.3 µM (inactive) | 1.47 µM (inactive) | 51.6 µM (inactive) | 17.8 µM (inactive) | 21.3 µM (inactive) | 18.9 µM (inactive)

Reference: ChEMBL document CHEMBL1201862, “PubChem BioAssay data set” (2004)
